US7452951B2, “Multifunctional self-decontaminating surface coating” (priority 2004, dated 2008)

Key:
[1] = test system: Salmonella typhimurium (Gram−); assay: Minimum inhibitory concentration (MIC) study of quaternary ammonium biocides; assay type: cell-based; details: unit assumed
Escherichia coli (Gram−) = assay: as above; assay type: cell-based; details: unit assumed
S. aureus (Gram+) = assay: as above; assay type: cell-based, Staphylococcus aureus; details: unit assumed
[2] = test system: B. anthracis Sterne strain (Gram+); assay type: cell-based, Bacillus anthracis Sterne strain; details: unit assumed
B. anthracis Sterne = assay type: cell-based, Bacillus anthracis Sterne strain
E. coli = assay: Tube dilution method with neutralizing agent to quench residual biocide activity; assay type: cell-based, Escherichia coli; details: starting cfu/mL 4.76 × 10^7; NG = no growth
S. aureus = assay: as above; assay type: cell-based, Staphylococcus aureus; details: starting cfu/mL 5.46 × 10^7; NG = no growth

SMILES	MIC S. typhimurium (Gram−) [1] [µg/mL]	MIC E. coli (Gram−) (Escherichia coli (Gram−)) [µg/mL]	MIC S. aureus (Gram+) (S. aureus (Gram+)) [µg/mL]	MIC B. anthracis (Gram+) [2] [µg/mL]	B. anthracis S.S. count after biocide, tube dilution method (B. anthracis Sterne)	E. Coli count after biocide, tube dilution method (E. coli)	S. aureus count after biocide, tube dilution method (S. aureus)
CCCCCC[N+](C)(C)CCOCCO.[Cl-] [Entry 10, Hexyl-(2-(2-hydroxy-ethoxy)-ethyl)dimethylammonium chloride]	> 5	5	> 5	> 5			
CCCCCC[N+](C)(C)CCOCCOCCOC.[Cl-] [Entry 3]	> 5	2.5	> 5	2.5			
CCCCCCCC[N+](C)(C)CCOCCO.[Cl-] [Entry 9, Octyl-(2-(2-hydroxy-ethoxy)-ethyl)dimethylammonium chloride]	5	5	1.25	1.25			
CCCCCC[N+](C)(C)CCOC.[Br-] [Entry 1, Hexyl-(2-methoxy-ethyl)-dimethyl-ammonium bromide]	2.5	2.5	2.5	5			
CCCCCCCC[N+](C)(C)CCOCCOCCOCCOC.[Cl-] [Entry 8]	2.5	1.25	0.8	0.312			
CCCCCCCC[N+](C)(C)CCOC.[Cl-] [Entry 5]	2.5	0.625	0.18	< 0.312			
CCCCCCCC[N+](C)(C)CCOCCOC.[Cl-] [Entry 6]	5	2.5	0.31	1.25			
CCCCCC[N+](C)(C)CCOCCOCCOCCOC.[Cl-] [Entry 4]	5	2.5	2.5	5			
c1ccncc1 [Pyridinium]					10^6 cfu/mL	10^7 cfu/mL	10^6 cfu/mL
CCCCCC[N+](C)(C)CCOCCOC.[Br-] [Entry 2, Hexyl-[2-(2-methoxy-ethoxy)-ethyl]-dimethyl-ammonium bromide]	> 5	2.5	> 5	> 5			
CCCCCCCC[N+](C)(C)CCOCCOCCOC.[Cl-] [Entry 7]	2.5	2.5	0.5	0.625			
